{"source": "patent US11504383B2", "about": "“Crystalline forms of a Ryanodine receptor modulator and uses thereof” (ARMGO Pharma, Inc., priority 2021, dated 2022)", "key": {"[1]": {"experiment": "Dynamic vapor sorption (hygroscopicity)", "assay_type": "physicochemical", "conditions": "DVS, 25° C., 0-90% relative humidity", "description": "Dynamic vapor sorption (DVS) analysis was performed by measuring mass variation of the crystalline form of 4-[(7-methoxy-2,3-dihydro-1,4-benzothiazepin-4(5H)yl)methyl]benzoic acid hemifumarate as a function of relative humidity using a DVS intrinsic instrument. A 5 mg to 10 mg of a sample of a crystalline form of 4-[(7-methoxy-2,3-dihydro-1,4-benzothiazepin-4(5H)yl)methyl]benzoic acid, hemifumarate was placed into a sample pan of a DVS intrinsic instrument at 25° C. under controlled humidity. The mass variation was recorded as a function of relative humidity.\nMeasurement of DVS comprised: (a) equilibrating a sample of the crystalline form at 25° C. and 50% relative humidity in a temperature-controlled and humidity controlled chamber until mass variation is less than 0.002% per minute for 6 hours; (b) increasing the relative humidity from 50% to 90% at a rate of 10% per hour; (c) equilibrating the sample at 90% relative humidity until mass variation of less than 0.002% per minute for 6 hours is observed; (d) decreasing the relative humidity from 90% to 0% at a rate of 10% per hour; (e) equilibrating the sample at 0% relative humidity until mass variation of less than 0.002% per minute for 6 hours is observed; and (f) increasing the relative humidity from 0% to 50% at a rate of 10% per hour."}, "[2]": {"experiment": "Thermogravimetric analysis (loss of mass before melting/degradation)", "assay_type": "physicochemical", "conditions": "25° C. to 250° C. at about 10° C./minute", "description": "Thermogravimetric analysis (TGA) was performed. A 10 to 20 mg of sample of a crystalline form of 4-[(7-methoxy-2,3-dihydro-1,4-benzothiazepin-4(5H)yl)methyl]benzoic acid hemifumarate was placed into an aluminum pan, with nitrogen purge. The sample was equilibrated at 25° C. in a temperature-controlled chamber. The sample was heated at a scan rate of about 10° C./minute to 250° C. under nitrogen purge. A TGA Q5000 thermogravimetric analysis instrument was used."}}, "note": "“Also recorded” adds a separate entry of the source."}
{"smiles": "COc1ccc2c(c1)CN(Cc1ccc(C(=O)O)cc1)CCS2.O=C(O)/C=C/C(=O)O", "note": "[Form 2, 4-[(7-methoxy-2,3-dihydro-1,4-benzothiazepin-4(5H)yl)methyl]benzoic acid, hemifumarate]", "values": [{"measurement": "Hygroscopicity", "setting": "[1]", "result": "non-hygroscopic; also recorded: not hygroscopic"}, {"measurement": "Loss of mass before melting degradation (TGA)", "setting": "[2]", "result": "< 0.1", "unit": "%"}]}
